In paper PMC10641236, “Influenza A virus replication has a stronger dependency on Raf/MEK/ERK signaling pathway activity than SARS-CoV-2” (Frontiers in Cellular and Infection Microbiology, 2023):
Where two headings read alike, the source gives them in different places.

What was measured:
[1] = human, in vivo; cited from earlier work
IAV RB1 = tested on: IAV RB1; design: method as in Laure et al., 2020; conditions: IAV RB1, medium containing 0.2% BSA; ref Laure et al., 2020; cited from earlier work
[2] = tested on: SARS-CoV-2 B.1 isolate “FI”; design: method as in Schreiber et al., 2022; conditions: ref Schreiber et al., 2022, read-out: EC50 value against SARS-CoV-2; cited from earlier work
IAV Fukui = tested on: IAV Fukui; design: method as in Laure et al., 2020; conditions: medium containing 0.2% BSA, ref Laure et al., 2020; cited from earlier work
SARS-CoV-2 = type: cell-based; conditions: 100 µM, Caco-2 cells, MOI 4, 10 h
IBV Lee = tested on: IBV Lee; design: method as in Laure et al., 2020; conditions: medium containing 0.2% BSA, ref Laure et al., 2020; cited from earlier work
Calu-3 cells = type: cell-based; conditions: human, 24 h
Description: (§1) Per well, 2.5 × 10^4 Caco-2 cells or 4 × 10^4 Calu-3 cells were seeded in 96-well plates (Greiner Bio-One, Kremsmünster, Austria) and incubated for 24 h at 37°C, 5% CO2. Cell viability was assessed using a WST-1 assay according to the manufacturer’s recommendations (Roche, Basel, Switzerland). For reference, cell viability was assessed at 0 h and after 24 h of treatment with different concentrations of zapnometinib in medium containing 1% DMSO. The measured cell viability was normalized to the 0-h control. The CC50 value was determined using the “Sigmoidal, 4PL, X is log(concentration)” equation in GraphPad Prism.

Caco-2 cells = type: cell-based; conditions: human, 24 h
Description: as §1

[3] = tested on: MEK1/2 (ERK1/2 phosphorylation); assay: IC50 determination in virus-infected cells, pERK/ERK ratio by WES; type: cell-based, Homo sapiens; conditions: for IC50: Homo sapiens
Description: Calu-3 and Caco-2 cells were seeded in 24-well plates (Greiner Bio-One GmbH, Frickenhausen, Germany) and grown to 90% confluence. The cells were washed once with infection medium [IMDM supplemented with 0.2% bovine serum albumin (BSA) (Carl Roth GmbH + Co. KG, Karlsruhe, Germany) and 1% penicillin–streptomycin] prior to infection with a multiplicity of infection (MOI) of 0.01 of IAV PR8 or SARS-CoV-2 for 1 h in 200 µL of infection medium per well. Afterwards, the virus inoculum was removed completely, and the cells were washed once with infection medium and then treated with 1 mL per well of different concentrations of zapnometinib in infection medium with 1% dimethyl sulfoxide (DMSO) (Merck Millipore, Burlington, MA, USA) for 24 h at 37°C, 5% CO2. Supernatants were harvested and stored at −80°C for subsequent determination of virus titer and EC50 value. Cell lysates were prepared as described in the “Preparation of cell lysates and WES™ analysis” section for WES™ analysis.
Cells were lysed using cold modified RIPA buffer [0.24% (w/v) tris base (Sigma-Aldrich, St. Louis, Missouri, USA), 0.88% (w/v) NaCl (Carl Roth, Karlsruhe, Germany), 0.2% (v/v) 500 mM ethylenediaminetetraacetic acid (EDTA) (Sigma-Aldrich, St. Louis, Missouri, USA), 1% (v/v) Triton X-100 (Sigma-Aldrich, St. Louis, Missouri, USA), 0.5% (w/v) sodium deoxycholate (Sigma-Aldrich, St. Louis, Missouri, USA), 0.1% (w/v) sodium dodecyl sulfate (SDS) (Carl Roth, Karlsruhe, Germany), 10% (v/v) glycerol (Carl Roth, Karlsruhe, Germany), 0.05% phenylmethylsulfonyl fluoride (PMSF) (Carl Roth, Karlsruhe, Germany), 0.01% Benzonase® Nuclease (Sigma-Aldrich, St. Louis, Missouri, USA), protease inhibitor cocktail (Roche, Basel, Switzerland), and phosphatase inhibitor cocktail (Roche, Basel, Switzerland) in water]. Determination of the protein concentration was performed using the Pierce™ BCA Protein Assay Kit (Thermo Fisher Scientific Inc., Waltham, MA, USA) according to the manufacturer’s instructions. The samples were analyzed by Wes™ using a total protein concentration of 0.25–0.5 µg/µL for each sample, the Jess/Wes Separation kit (12–230 kDa), primary antibodies against ERK1/2, p44/42 MAPK (137F5) Rabbit mAb (Cell Signaling Technology, Danvers, MA, USA, Cat. No. 4695S) and phospho-ERK1/2 (pERK1/2), Phospho-p44/42 MAPK (Erk1/2) (Thr202/Tyr204) (D13.14.4E), XP® Rabbit mAb (Cell Signaling Technology, Danvers, MA, USA, Cat. no. 4370S) in a 1:50 dilution, anti-Influenza A virus Nucleoprotein (NP) antibody (rabbit MAb) (Sino Biological, Beijing, China Cat.no 40208-R010) in a 1:150 dilution, SARS-CoV-2 nucleocapsid protein antibody (ProSci Inc., Poway, CA, USA, Cat. no. 35-580) in a 1:100 dilution, the anti-goat, anti-rabbit, and anti-mouse detection modules, and the EZ Standard Pack 1 (12–230 kDa), according to the manufacturer’s instructions. Analysis of the obtained data was performed using the Compass for SW 4.1.0 software, Microsoft Excel, and the GraphPad Prism 9.2.0 software. Ratios were calculated from the area under the curve of the respective detected signals.
Twenty-four hours before the experiment, the growth medium was exchanged to medium with respective FBS or BSA concentration. Then, cells were stimulated by the addition of tumor necrosis factor alpha (TNF-α) (Sigma-Aldrich, St. Louis, Missouri, USA) for 30 min at 37°C, 5% CO2, followed by treatment with different zapnometinib concentrations and a DMSO (solvent) control for 1 h. For determination of the IC50 value in cells infected with IAV PR8 or SARS-CoV-2, cells were infected with the respective virus and treated with zapnometinib for 24 h as described in the “Virus yield reduction assay” section. After incubation, cell lysates were prepared, and the samples were analyzed by WES™ as described in the “Preparation of cell lysates and WES™ analysis” section. The pERK/ERK ratio was calculated and normalized to the solvent control. […]

O=C(O)c1ccc(F)c(F)c1Nc1ccc(I)cc1Cl [zapnometinib, 2-(2-chloro-4-iodophenylamino)-N-3,4-difluoro benzoic acid]
tolerability in phase I clinical trial [1]: well tolerated | EC50 (IAV RB1): 6.36 µM | EC50 [2]: 31.3 µM | EC50 (IAV Fukui): 4.5 µM | Infected cells (SARS-CoV-2 N positive) normalized to solvent control (SARS-CoV-2): 18.3% | amount of SARS-CoV-2 N (SARS-CoV-2): reduced | distribution of the SARS-CoV-2 N (SARS-CoV-2): did not change | EC50 (IBV Lee): 4.19 µM | CC50 (Calu-3 cells): 303 µM | CC50 (Caco-2 cells): 360 µM | Level of MEK activation (ERK phosphorylation) at EC50 ([3]; Caco-2 cells, IAV PR8, interpolated at EC50 5.72 µM): 37% | Level of MEK activation (ERK phosphorylation) at EC50 ([3]; Caco-2 cells, SARS-CoV-2, interpolated at EC50 22.9 µM): 25% | Level of MEK activation (ERK phosphorylation) at EC50 ([3]; Calu-3 cells, IAV PR8, interpolated at EC50 7.13 µM): 25% | Level of MEK activation (ERK phosphorylation) at EC50 ([3]; Calu-3 cells, SARS-CoV-2, interpolated at EC50 19.7 µM): 10% | IC50 ([3]; Caco-2, 24 h, read-out: IC50 value (ERK phosphorylation) in infected cells, IAV PR8-infected Caco-2 cells, MOI 0.01, 0.2% BSA, 24 h): 2.24 µM | IC50 ([3]; Caco-2, 24 h, read-out: IC50 value (ERK phosphorylation) in infected cells, SARS-CoV-2-infected Caco-2 cells, MOI 0.01, 0.2% BSA, 24 h, bottom plateau constrained to 0): 5.65 µM | IC50 ([3]; Calu-3, 24 h, read-out: IC50 value (ERK phosphorylation) in infected cells, IAV PR8-infected Calu-3 cells, MOI 0.01, 0.2% BSA, 24 h): 1.01 µM | IC50 ([3]; Calu-3, 24 h, read-out: IC50 value (ERK phosphorylation) in infected cells, SARS-CoV-2-infected Calu-3 cells, MOI 0.01, 0.2% BSA, 24 h): 1.99 µM
